Source: patent US9586962B2, “Disubstituted octahydropyrrolo [3,4-C] pyrroles as orexin receptor modulators” (Janssen Pharmaceutica NV, priority 2011, dated 2017)

Tests used:
human orexin 2 receptor [1] = target: T1, human orexin 2 receptor (Homo sapiens (Human), UniProt O43614); experiment: Human orexin 2 receptor radioligand binding ([3H]EMPA competition, HEK293 cells); settings: HEK293 cells expressing human orexin-2 receptor, read-out: OR 2 Ki
human orexin 2 receptor [2] = target: T1, human orexin 2 receptor; experiment: Human orexin 2 receptor Ca2+ mobilization assay (FLIPR, PFSK cells, orexin B 100 nM); type: cell-based; settings: modified Cheng-Prusoff correction, read-out: OR 2 Kb

T1 sequence (O43614 whole entry): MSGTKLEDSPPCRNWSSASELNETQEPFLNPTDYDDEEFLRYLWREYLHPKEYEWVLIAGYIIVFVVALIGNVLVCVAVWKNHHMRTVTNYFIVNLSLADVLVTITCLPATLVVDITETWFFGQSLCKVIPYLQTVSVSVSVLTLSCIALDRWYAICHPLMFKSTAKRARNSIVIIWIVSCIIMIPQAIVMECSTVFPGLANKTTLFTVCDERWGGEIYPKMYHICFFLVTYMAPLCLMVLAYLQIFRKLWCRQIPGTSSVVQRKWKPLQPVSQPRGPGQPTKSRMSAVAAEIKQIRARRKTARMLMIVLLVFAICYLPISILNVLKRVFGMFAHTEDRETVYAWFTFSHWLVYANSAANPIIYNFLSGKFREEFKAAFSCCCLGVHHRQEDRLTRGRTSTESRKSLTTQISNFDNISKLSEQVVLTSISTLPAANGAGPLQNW

Row | Ki (human orexin 2 receptor [1]) [nM] | Kb (human orexin 2 receptor [2]) [nM] | Compound
1 | 31 |  | O=C(c1cccc(F)c1-c1[nH]ncc1F)N1CC2CN(c3cnc4cc(F)c(F)cc4n3)CC2C1 (stereo not drawn) [Example 456, 6,7-Difluoro-2-[5-{[3-fluoro-2-(4-fluoro-1H-pyrazol-5-yl)phenyl]carbonyl}hexahydropyrrolo[3,4-c]pyrrol-2(1H)-yl]quinoxaline]
2 | 62 |  | Cc1nc(N(C)C)cc(N2CC3CN(C(=O)c4ccc(F)cc4-n4nccn4)CC3C2)n1 (stereo not drawn) [Example 417, 6-[5-{[4-Fluoro-2-(2H-1,2,3-triazol-2-yl)phenyl]carbonyl}hexahydropyrrolo[3,4-c]pyrrol-2(1H)-yl]-N,N,2-trimethylpyrimidin-4-amine]
3 | 72 |  | O=C(c1cccc(F)c1-c1cncs1)N1CC2CN(c3cnc4cc(F)c(F)cc4n3)CC2C1 (stereo not drawn) [Example 454, 6,7-Difluoro-2-[5-{[3-fluoro-2-(1,3-thiazol-5-yl)phenyl]carbonyl}hexahydropyrrolo[3,4-c]pyrrol-2(1H)-yl]quinoxaline]
4 | 1350 |  | CCOc1ccc(C)nc1C(=O)N1CC2CN(c3cc(N(C)C)nc(C)n3)CC2C1 (stereo not drawn) [Example 420, 6-{5-[(3-Ethoxy-6-methylpyridin-2-yl)carbonyl]hexahydro-pyrrolo[3,4-c]pyrrol-2(1H)-yl}-N,N,2-trimethylpyrimidin-4-amine]
5 | 3810 |  | Cc1cc(C)nc(N2CC3CN(C(=O)c4c(F)cccc4C4=CC(=O)OC4)CC3C2)n1 (stereo not drawn) [Example 480, 4-(2-{[5-(4,6-Dimethylpyrimidin-2-yl)hexahydropyrrolo[3,4-c]pyrrol-2(1H)-yl]carbonyl}-3-fluorophenyl)furan-2(5H)-one]
6 | 10000 |  | Cc1cc(C)nc(N2CC3CN(C(=O)c4c(F)cccc4-c4ccnnc4)CC3C2)n1 (stereo not drawn) [Example 488, 2-(4,6-Dimethylpyrimidin-2-yl)-5-[(2-fluoro-6-pyridazin-4-ylphenyl)carbonyl]octahydropyrrolo[3,4-c]pyrrole]
7 | 79 |  | Cc1nc(N(C)C)cc(N2CC3CN(C(=O)c4cccc(F)c4-c4ncccn4)CC3C2)n1 (stereo not drawn) [Example 427, 6-{5-[(3-Fluoro-2-pyrimidin-2-ylphenyl)carbonyl]hexahydropyrrolo[3,4-c]pyrrol-2(1H)-yl}-N, N,2-trimethylpyrimidin-4-amine]
8 | 524 |  | COc1ncc(-c2cccc(F)c2C(=O)N2CC3CN(c4nc(C)cc(C)n4)CC3C2)s1 (stereo not drawn) [Example 479, 2-(4,6-Dimethylpyrimidin-2-yl)-5-{[2-fluoro-6-(2-methoxy-1,3-thiazol-5-yl)phenyl]carbonyl}octahydropyrrolo[3,4-c]pyrrole]
9 | 18 |  | [2H]c1c(C([2H])([2H])[2H])nc(N2CC3CN(C(=O)c4cccc(F)c4-c4ncccn4)CC3C2)nc1C([2H])([2H])[2H] (stereo not drawn) [Example 431, 2-{4,6-Bis[(^2H3)methyl](^2H)pyrimidin-2-yl}-5-[(3-fluoro-2-pyrimidin-2-ylphenyl)carbonyl]octahydropyrrolo[3,4-c]pyrrole]
10 | 270 |  | Cc1cc(C)nc(N2CC3CN(C(=O)c4c(F)cccc4-c4nnc[nH]4)CC3C2)n1 (stereo not drawn) [Example 437, 2-(4,6-Dimethylpyrimidin-2-yl)-5-{[2-fluoro-6-(1H-1,2,4-triazol-5-yl)phenyl]carbonyl}octahydropyrrolo[3,4-c]pyrrole]
11 |  | 13 | CN(C)c1nc(N2CC3CN(C(=O)c4ccccc4-n4nccn4)CC3C2)cc(C(F)(F)F)n1 (stereo not drawn) [Example 121, N,N-Dimethyl-4-[5-{[2-(2H-1,2,3-triazol-2-yl)phenyl]carbonyl}hexahydropyrrolo[3,4-c]pyrrol-2(1H)-yl]-6-(trifluoromethyl)pyrimidin-2-amine]
12 |  | 16 | COc1cc(OC)nc(N2CC3CN(C(=O)c4c(F)cccc4-c4ncccn4)CC3C2)n1 (stereo not drawn) [Example 68, 2-(4,6-Dimethoxypyrimidin-2-yl)-5-[(2-fluoro-6-pyrimidin-2-ylphenyl)carbonyl]octahydropyrrolo[3,4-c]pyrrole]
13 |  | 79 | Cc1ccc(-n2nccn2)c(C(=O)N2CC3CN(c4nc(C)cnc4C)CC3C2)c1 (stereo not drawn) [Example 123, [5-(3,6-Dimethyl-pyrazin-2-yl)-hexahydro-pyrrolo[3,4-c]pyrrol-2-yl]-(5-methyl-2-[1,2,3]triazol-2-yl-phenyl)-methanone]
14 |  | 50 | Cc1ccnc(N2CC3CN(C(=O)c4ccccc4-c4cccs4)CC3C2)c1 (stereo not drawn) [Example 136, 2-(4-Methylpyridin-2-yl)-5-[(2-thiophen-2-ylphenyl)carbonyl]octahydropyrrolo[3,4-c]pyrrole]
15 |  | 25 | Cc1cc(C)nc(N2CC3CN(C(=O)c4ccc(F)c5ccccc45)CC3C2)n1 (stereo not drawn) [Example 90, 2-(4,6-Dimethylpyrimidin-2-yl)-5-[(4-fluoronaphthalen-1-yl)carbonyl]octahydro-pyrrolo[3,4-c]pyrrole]
16 |  | 10 | Cc1cc(C)nc(N2CC3CN(C(=O)c4cc(F)ccc4-c4ncccn4)CC3C2)n1 (stereo not drawn) [Example 74, 2-(4,6-Dimethylpyrimidin-2-yl)-5-[(5-fluoro-2-pyrimidin-2-ylphenyl)carbonyl]octahydropyrrolo[3,4-c]pyrrole]
17 |  | 5 | Cc1cc(C)nc(N2CC3CN(C(=O)c4c(F)cccc4-c4ncccn4)CC3C2)n1 (stereo not drawn) [Example 73, 2-(4,6-Dimethylpyrimidin-2-yl)-5-[(2-fluoro-6-pyrimidin-2-ylphenyl)carbonyl]octahydropyrrolo[3,4-c]pyrrole]

Continued, molecule first:

Row | Compound | Ki (human orexin 2 receptor [1]) [nM] | Kb (human orexin 2 receptor [2]) [nM]
18 | Cc1cc(C)nc(N2CC3CN(C(=O)c4cccc(F)c4-c4nnc[nH]4)CC3C2)n1 (stereo not drawn) [Example 432, 2-(4,6-Dimethylpyrimidin-2-yl)-5-{[3-fluoro-2-(1H-1,2,4-triazol-5-yl)phenyl]carbonyl}octahydropyrrolo[3,4-c]pyrrole] | 23 | 
19 | Cc1nc(N(C)C)cc(N2CC3CN(C(=O)c4c(F)cccc4-c4ncccn4)CC3C2)n1 (stereo not drawn) [Example 426, 6-{5-[(2-Fluoro-6-pyrimidin-2-ylphenyl)carbonyl]hexahydropyrrolo[3,4-c]pyrrol-2(1H)-yl}-N,N,2-trimethylpyrimidin-4-amine] | 36 | 
20 | O=C(c1cccc(F)c1I)N1CC2CN(c3cnc4cc(F)c(F)cc4n3)CC2C1 (stereo not drawn) [Example 449, 6,7-Difluoro-2-{5-[(3-fluoro-2-iodophenyl)carbonyl]hexahydropyrrolo[3,4-c]pyrrol-2(1H)-yl}quinoxaline] | 160 | 
21 | Cc1cccc(C(=O)N2CC3CN(c4cnc5cc(F)c(F)cc5n4)CC3C2)c1-n1nccn1 (stereo not drawn) [Example 460, 6,7-Difluoro-2-[5-{[3-methyl-2-(2H-1,2,3-triazol-2-yl)phenyl]carbonyl}hexahydropyrrolo[3,4-c]pyrrol-2(1H)-yl]quinoxaline] | 109 | 
22 | Cc1cc(C)nc(N2CC3CN(C(=O)c4c(F)cccc4-c4ncccc4F)CC3C2)n1 (stereo not drawn) [Example 481, 2-(4,6-Dimethylpyrimidin-2-yl)-5-{[2-fluoro-6-(3-fluoropyridin-2-yl)phenyl]carbonyl}octahydropyrrolo[3,4-c]pyrrole] | 24 | 
23 | Cc1cc(C)nc(N2CC3CN(C(=O)c4c(F)cccc4-c4nccs4)CC3C2)n1 (stereo not drawn) [Example 476, 2-(4,6-Dimethylpyrimidin-2-yl)-5-{[2-fluoro-6-(1,3-thiazol-2-yl)phenyl]carbonyl}octahydropyrrolo[3,4-c]pyrrole] | 15 | 
24 | Cc1cc(C)nc(N2CC3CN(C(=O)c4c(F)cccc4-c4ncc(C)s4)CC3C2)n1 (stereo not drawn) [Example 477, 2-(4,6-Dimethylpyrimidin-2-yl)-5-{[2-fluoro-6-(5-methyl-1,3-thiazol-2-yl)phenyl]carbonyl}octahydropyrrolo[3,4-c]pyrrole] | 19 | 
25 | Cc1cc(CO)nc(N2CC3CN(C(=O)c4cccc(F)c4-c4nc(C)no4)CC3C2)n1 (stereo not drawn) [Example 436, {2-[5-{[3-Fluoro-2-(3-methyl-1,2,4-oxadiazol-5-yl)phenyl]carbonyl}hexahydropyrrolo[3,4-c]pyrrol-2(1H)-yl]-6-methylpyrimidin-4-yl}methanol] | 21 | 
26 | Cc1nc(N2CC3CN(C(=O)c4cccc(F)c4-c4ncco4)CC3C2)ncc1F (stereo not drawn) [Example 496, 2-(5-Fluoro-4-methylpyrimidin-2-yl)-5-{[3-fluoro-2-(1,3-oxazol-2-yl)phenyl]carbonyl}octahydropyrrolo[3,4-c]pyrrole] | 26 | 
27 | Cc1cc(C)nc(N2CC3CN(C(=O)c4c(F)cccc4-c4ncco4)CC3C2)n1 (stereo not drawn) [Example 491, 2-(4,6-Dimethylpyrimidin-2-yl)-5-{[2-fluoro-6-(1,3-oxazol-2-yl)phenyl]carbonyl}octahydropyrrolo[3,4-c]pyrrole] | 16 | 
28 | Cc1ccc(-c2ncccn2)c(C(=O)N2CC3CN(c4cc(N(C)C)nc(C)n4)CC3C2)n1 (stereo not drawn) [Example 428, N,N,2-Trimethyl-6-{5-[(6-methyl-3-pyrimidin-2-ylpyridin-2-yl)carbonyl]hexahydropyrrolo[3,4-c]pyrrol-2(1H)-yl}pyrimidin-4-amine] | 244 | 
29 | O=C(c1ccccc1-c1nnc[nH]1)N1CC2CN(c3cnc4ccccc4n3)CC2C1 (stereo not drawn) [Example 85, 2-[5-{[2-(4H-1,2,4-Triazol-3-yl)phenyl]carbonyl}hexahydropyrrolo[3,4-c]pyrrol-2(1H)-yl]quinoxaline] |  | 63
30 | Cc1cncc(N2CC3CN(C(=O)c4ccc(F)cc4-n4nccn4)CC3C2)n1 (stereo not drawn) [Example 158, 2-{[4-Fluoro-2-(2H-1,2,3-triazol-2-yl)phenyl]carbonyl}-5-(6-methylpyrazin-2-yl)octahydropyrrolo[3,4-c]pyrrole] |  | 8
31 | Cc1cnc(C)c(N2CC3CN(C(=O)c4ccccc4-n4nccn4)CC3C2)n1 (stereo not drawn) [Example 155, 2-(3,6-Dimethylpyrazin-2-yl)-5-{[2-(2H-1,2,3-triazol-2-yl)phenyl]carbonyl}octa hydropyrrolo[3,4-c]pyrrole] |  | 16
32 | CN(C)c1cc(N2CC3CN(C(=O)c4cc(F)ccc4-n4nccn4)CC3C2)nc(C(F)(F)F)n1 (stereo not drawn) [Example 9, 6-[5-{[5-Fluoro-2-(2H-1,2,3-triazol-2-yl)phenyl]carbonyl}hexahydropyrrolo[3,4-c]pyrrol-2(1H)-yl]-N,N-dimethyl-2-(trifluoromethyl)pyrimidin-4-amine] |  | 56
33 | CN(C)c1nc(N2CC3CN(C(=O)c4cc(F)ccc4-n4nccn4)CC3C2)cc(C(F)(F)F)n1 (stereo not drawn) [Example 110, 4-[5-{[5-Fluoro-2-(2H-1,2,3-triazol-2-yl)phenyl]carbonyl}hexahydropyrrolo[3,4-c]pyrrol-2(1H)-yl]-N, N-dimethyl-6-(trifluoromethyl)pyrimidin-2-amine] |  | 32
